Results published in ChEMBL document CHEMBL1201862, “PubChem BioAssay data set” (2004).
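Exposure lasted 48 hours, with cells grown in 96-well plates and compounds tested at five concentrations. The concentration for 50% growth inhibition is given as GI50.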 Calls of active or inactive are those of the source. Cut-off read from the data, not from the text of the source: active = GI50 up to about 1.1 µM and inactive = higher.

Legend:
Experiment in all cases: growth of human tumour cells (NCI), 48 h
SK-OV-3 = tested on: SK-OV-3
CAKI-1 = tested on: CAKI-1
EKVX = tested on: EKVX
OVCAR-8 = tested on: OVCAR-8
HCC 2998 = tested on: HCC 2998
NCI-H23 = tested on: NCI-H23
HCT-116 = tested on: HCT-116
A549 = tested on: A549
IGROV-1 = tested on: IGROV-1
K562 = tested on: K562
HT-29 = tested on: HT-29
CCRF-CEM = tested on: CCRF-CEM
LXFL 529 = tested on: LXFL 529
KM12 = tested on: KM12
HL-60 = tested on: HL-60
NCI-H226 = tested on: NCI-H226
MDA-MB-231 = tested on: MDA-MB-231
Hs-578T = tested on: Hs-578T
DU-145 = tested on: DU-145
MDA-MB-435 = tested on: MDA-MB-435

Measured: GI50

COc1cc2c(cc1OC)C(C(=O)O)C(c1ccccc1)N(C)C2=O (configuration not stated)
inactive: SK-OV-3 > 100 µM | CAKI-1 > 100 µM | EKVX > 100 µM | OVCAR-8 > 100 µM | HCC 2998 > 100 µM | NCI-H23 > 100 µM | HCT-116 > 100 µM | A549 > 100 µM | IGROV-1 > 100 µM | K562 > 100 µM | HT-29 > 100 µM | CCRF-CEM > 100 µM | LXFL 529 > 100 µM | KM12 > 100 µM

CC(=O)OCC1OC(OCc2ccccc2)C(Br)C(OC(C)=O)C1OC(C)=O (configuration not stated)
inactive: HL-60 > 100 µM | CAKI-1 > 100 µM | OVCAR-8 > 100 µM | HCC 2998 > 100 µM | NCI-H23 > 100 µM | HCT-116 > 100 µM | A549 > 100 µM | IGROV-1 > 100 µM | K562 > 100 µM | HT-29 > 100 µM | CCRF-CEM > 100 µM | LXFL 529 > 100 µM | NCI-H226 > 100 µM | KM12 > 100 µM

Cc1cccc(NC(=O)CC#N)c1Cl
inactive: HL-60 > 100 µM | SK-OV-3 > 100 µM | CAKI-1 > 100 µM | EKVX > 100 µM | NCI-H23 > 100 µM | HCT-116 > 100 µM | A549 > 100 µM | IGROV-1 > 100 µM | K562 > 100 µM | HT-29 > 100 µM | CCRF-CEM > 100 µM | LXFL 529 > 100 µM | NCI-H226 > 100 µM | KM12 > 100 µM

CCOC(=O)N1N=C(/C(C)=N/OC)C(C)[S+]1[O-] (configuration not stated)
inactive: HL-60 > 100 µM | SK-OV-3 > 100 µM | MDA-MB-231 > 100 µM | Hs-578T > 100 µM | CAKI-1 > 100 µM | EKVX > 100 µM | OVCAR-8 > 100 µM | HCC 2998 > 100 µM | NCI-H23 > 100 µM | HCT-116 > 100 µM | A549 > 100 µM | IGROV-1 > 100 µM | K562 > 100 µM | DU-145 > 100 µM | HT-29 > 100 µM | MDA-MB-435 > 100 µM | CCRF-CEM > 100 µM | NCI-H226 > 100 µM | KM12 > 100 µM

CC(=O)O[C@]1(C)OC(=O)[C@@H](C)N1[N+](=O)[O-]
inactive: HL-60 32.1 µM | SK-OV-3 > 100 µM | EKVX > 100 µM | OVCAR-8 > 100 µM | HCC 2998 > 100 µM | NCI-H23 > 100 µM | HCT-116 > 100 µM | A549 > 100 µM | IGROV-1 > 100 µM | K562 > 100 µM | HT-29 > 100 µM | CCRF-CEM 72.8 µM | LXFL 529 > 100 µM | NCI-H226 > 100 µM | KM12 > 100 µM

COC(=O)[C@]1(c2cc3ccccc3[nH]2)CC2CN(C(=O)OCc3ccccc3)C1CC2=O (some centres not stated)
inactive: HL-60 16.4 µM | SK-OV-3 33.4 µM | MDA-MB-231 12.8 µM | Hs-578T 19.4 µM | CAKI-1 38.5 µM | EKVX 17.1 µM | OVCAR-8 26.7 µM | HCC 2998 35 µM | NCI-H23 29.7 µM | HCT-116 22.8 µM | A549 23.3 µM | IGROV-1 29.7 µM | K562 18.7 µM | DU-145 38.8 µM | HT-29 15.5 µM | MDA-MB-435 30.1 µM | CCRF-CEM 28.2 µM | NCI-H226 18.2 µM | KM12 26.9 µM

CCN(CC)CCOC(=O)/C(=C/c1ccc(OC)cc1)c1cc(OC)c(OC)c(OC)c1
inactive: HL-60 3.3 µM | CAKI-1 4.42 µM | EKVX 31.5 µM | OVCAR-8 15.5 µM | HCT-116 5.45 µM | A549 5.56 µM | IGROV-1 6.01 µM | K562 3.29 µM | HT-29 1.92 µM | CCRF-CEM 18.8 µM | LXFL 529 5.45 µM | NCI-H226 13.5 µM | KM12 3.77 µM

O=C(/C=C/c1ccc(O)c(O)c1)c1ccc(O)cc1O [BUTEIN]
inactive: HL-60 3.29 µM | SK-OV-3 15.7 µM | MDA-MB-231 15.8 µM | Hs-578T 19.4 µM | CAKI-1 10.5 µM | EKVX 26.9 µM | OVCAR-8 17.9 µM | HCC 2998 17.1 µM | NCI-H23 16.7 µM | HCT-116 13 µM | A549 25 µM | IGROV-1 15.2 µM | K562 4.27 µM | DU-145 9.1 µM | HT-29 17.5 µM | MDA-MB-435 9.08 µM | CCRF-CEM 3.75 µM | NCI-H226 17.3 µM | KM12 10.2 µM
